# According to paper PMC6017325, “Cell Penetrating Capacity and Internalization Mechanisms Used by the Synthetic Peptide CIGB-552 and Its Relationship with Tumor Cell Line Sensitivity” (Molecules : A Journal of Synthetic Chemistry and Natural …, 2018):
# How the values were obtained:
# H460 [1] = details: H460 cell line; read-out: cytotoxicity, IC50 value; cited from earlier work
# Excerpt: Table 1 CIGB-552 cytotoxicity in H460, HT-29 and MCF-7 cell lines (expressed by the IC50 value in μM); D-amino acids are indicated in small and italic characters. | column: H460
# H460 [2] = assay: Internalization assay, flow cytometry, H460; assay type: cell-based, human; details: FITC-conjugated CIGB-552 5 and 50 μM, 1 h
# Procedure: (§1) Cells were seeded in 12-well plates (1 × 10^5 cells/well) and cultured in either D-MEM or RPMI supplemented with Glutamax, 10% (v/v) FBS, at 37 °C for 24 h. For those samples where internalization was analyzed by microscopy, round coverslips were placed into the wells prior to cell seeding. Subsequently, FITC-conjugated CIGB-552, was added to the cells to a final concentration of 5 μM or 50 μM and was incubated for 1 h at either 4 °C or 37 °C. For flow cytometry readout, culture medium was removed, cells were washed using phosphate-buffered saline (PBS) and surface-bound FITC-peptide was quenched with 0.4% (w/v) Trypan Blue solution. Cells were trypsinized and samples were acquired using Cyan ADP Flow Cytometer equipped with a 488 nm laser and a FL1 emission filter (530/40 nm). For data acquisition and analysis Summit v4.3 (Beckman Coulter, Fullerton, CA, USA) and FlowJo v.7.6.5 software (BD, Ashland, OR, USA) were used. For microscopy assays, cells were fixed in 4% (w/v) paraformaldehyde (PFA) for 15min, permeabilized using 0.2% (v/v) Tween 20 solution in PBS, and nuclei were stained using TOPRO-3 (1 μM, Life Technologies) and CellMask^TM membrane marker (1:2000, Life Technologies).
# Data was expressed as the mean ± Standard Deviation of triplicates of one representative experiment, three independent experiments were executed. Statistic calculations were performed using Statistica software (STATSOFT, Hamburg, Germany). Differences were considered statistically significant when p < 0.05 using Mann-Whitney U Test.
# MCF-7 [3] = assay: Internalization assay, flow cytometry, MCF-7; assay type: cell-based, human; details: FITC-conjugated CIGB-552 5 and 50 μM, 1 h
# Procedure: as §1
# (§2) Data was expressed as the mean ± Standard Deviation of triplicates of one representative experiment, three independent experiments were executed. […]
# HT-29 [4] = details: HT-29 cell line; read-out: cytotoxicity, IC50 value; cited from earlier work
# Excerpt: Table 1 CIGB-552 cytotoxicity in H460, HT-29 and MCF-7 cell lines (expressed by the IC50 value in μM); D-amino acids are indicated in small and italic characters. | column: HT-29
# HT-29 [5] = assay: Internalization assay, flow cytometry, HT-29; assay type: cell-based, human; details: FITC-conjugated CIGB-552 5 and 50 μM, 1 h
# Procedure: as §1, §2
# MCF-7 [6] = details: MCF-7 cell line; read-out: cytotoxicity, IC50 value; cited from earlier work
# Excerpt: Table 1 CIGB-552 cytotoxicity in H460, HT-29 and MCF-7 cell lines (expressed by the IC50 value in μM); D-amino acids are indicated in small and italic characters. | column: MCF-7
# COMMD1 protein = target: T1, COMMD1 protein (Homo sapiens, UniProt Q8N668); assay: Protein complementation assay (PCA), Venus; assay type: cell-based; details: MCF-7 and H460 cells co-transfected with Venus 1 / Venus 2 plasmids containing COMMD1 or L2; confocal microscopy
# T1 construct: Venus fragment (Venus 1 or Venus 2); expressed in transfected cells; host or cells: MCF-7 and H460 cells, co-transfected with pCDNA3.1 Venus 1 / Venus 2 plasmids using Lipofectamine 2000
# Procedure: L2 peptide, which was chemically modified in its primary structure to generate the CIGB-552, was used for the protein complementation assay. Cells were seeded in 12-well plates containing round coverslips (1 × 10^5 cells/well) and cultured in either DMEM or RPMI supplemented with Glutamax, 10% (v/v) FBS, at 37 °C for 24 h. Cells were co-transfected with the plasmids pCDNA3.1 Venus 1 and pCDNA3.1 Venus 2 each one containing either COMMD1 protein or L2 peptide. Transfection was performed with Lipofectamine 2000 (Thermo Fisher, Waltham, MA, USA) using a ratio of 1:2 DNA:lipofectamine ([…]). […]
# All images were taken using laser confocal microscope Leica TCS SP5 equipped with a 63X NA 1.42 oil immersion objective (Leica Microsystems, Wetzlar, Germany). […] Quantification of the number of fully loaded cells was performed using 10 single optical sections for each cell line by using the Manual Counting plugin provided in Icy 1.9.5.1v imaging software. In order to assess fluorescence intensity both in cytoplasm and nuclei, images were taken in identical conditions (laser power, photomultiplier voltage, line and frame average and zoom) for all cell lines and 10 single optical sections were used for the analysis. […]
# [7] = MFI at 4 °C referred to MFI at 37 °C
# T1 sequence (Q8N668 whole entry, the tested form may be a part): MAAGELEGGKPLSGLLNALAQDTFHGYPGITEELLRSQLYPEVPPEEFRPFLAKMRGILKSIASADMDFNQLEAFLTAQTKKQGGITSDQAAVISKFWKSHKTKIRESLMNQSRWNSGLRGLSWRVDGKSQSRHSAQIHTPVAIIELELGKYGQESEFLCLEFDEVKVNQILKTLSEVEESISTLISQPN
Substance,IC50 (H460 [1]) [µM],temperature effect on internalization (H460 [2]; 4 °C versus 37 °C),"internalization levels (median fluorescent intensity, MFI) (H460 [2]; 37 °C, surface-bound peptide quenched with 0.4% Trypan Blue)",contribution of the transduction mechanism to internalization (H460 [2]; [7]),temperature effect on internalization (MCF-7 [3]; 4 °C versus 37 °C),contribution of the transduction mechanism to internalization (MCF-7 [3]; [7]),IC50 (HT-29 [4]) [µM],temperature effect on internalization (HT-29 [5]; 4 °C versus 37 °C),contribution of the transduction mechanism to internalization (HT-29 [5]; [7]),IC50 (MCF-7 [6]) [µM],in situ interaction with COMMD1 (fluorescence emission of Venus protein) (COMMD1 protein)
"Ac-HARIKpTFRRlKWKYKGKFW [CIGB-552, twenty-amino-acid novel synthetic peptide, AMP-derived, cell penetrating, pro-apoptotic through COMMD1]",23 ± 8,higher reduction in internalization levels,highest internalization levels,less than 50%,reduction in the internalization,more than 50%,166 ± 66,higher reduction in internalization levels,less than 50%,338 ± 39,
HARIKPTFRRLKWKYKGKFW [L2],,,,,,,,,,,likely to interact
